Reference: patent US20240246964A1 (Arbutus Biopharma Corporation, priority 2021, published 2024)

Each molecule was assayed against human PD-L1 (Homo sapiens (Human), UniProt Q9NZQ7) (assay: T cell activation luciferase reporter cell culture system (T Cell Activation Assay)). Conditions: luciferase reporter assay; PD-L1 aAPC/CHO-K1 cells with PD-1 effector Jurkat T cells.
Format: cell-based

human PD-L1, sequence (Q9NZQ7 19-290): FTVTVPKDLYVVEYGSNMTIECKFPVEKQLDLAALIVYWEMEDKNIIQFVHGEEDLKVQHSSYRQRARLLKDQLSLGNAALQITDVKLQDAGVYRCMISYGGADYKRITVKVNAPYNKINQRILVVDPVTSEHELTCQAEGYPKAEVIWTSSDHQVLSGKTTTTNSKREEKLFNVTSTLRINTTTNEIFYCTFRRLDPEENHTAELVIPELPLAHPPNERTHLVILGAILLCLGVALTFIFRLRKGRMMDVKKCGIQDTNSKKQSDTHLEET

Structure (SMILES)	EC50 [nM]
COc1nc(-c2cccc(-c3ccnc(-c4cc(F)c5c(c4)CN(CC(C)(C)O)CC5)c3Cl)c2Cl)ccc1CNC[C@@H]1CCC(=O)N1 [Cmpd 47, (S)-5-((((6-(2-chloro-3-(3-chloro-2-(5-fluoro-2-(2-hydroxy-2-methylpropyl)-1,2,3,4-tetrahydroisoquinolin-7-yl)pyridin-4-yl)phenyl)-2-methoxypyridin-3-yl)methyl)amino)methyl)pyrrolidin-2-one]	10000
COc1cc(-c2nccc(-c3cccc(-c4cc(Cl)c(CNC[C@@H]5CCC(=O)N5)c(OC)n4)c3Cl)c2Cl)ccc1CNCC(=O)OC(C)C [Cmpd 123, isopropyl (S)-(4-(3-chloro-4-(2-chloro-3-(4-chloro-6-methoxy-5-((((5-oxopyrrolidin-2-yl)methyl)amino)methyl)pyridin-2-yl)phenyl)pyridin-2-yl)-2-methoxybenzyl)glycinate]	129
COc1cc(-c2ncnc(-c3cccc(-c4ccc(CN5CC6(C5)CN(C(C)=O)C6)c(OC)n4)c3Cl)c2Cl)ccc1CN1CC2(C1)CN(C(C)=O)C2 [Example 589, 1-(6-((6-(3-(6-(4-((6-Acetyl-2,6-diazaspiro[3.3]heptan-2-yl)methyl)-3-methoxyphenyl)-5-chloropyrimidin-4-yl)-2-chlorophenyl)-2-methoxypyridin-3-yl)methyl)-2,6-diazaspiro[3.3]heptan-2-yl)ethan-1-one]	≥ 10000
COc1cc(-c2ncnc(-c3cccc(-c4ccc(CN[C@H]5C[C@@H](O)C5)c(OC)n4)c3Cl)c2Cl)ccc1CN1CC2(CNC(=O)C2)C1 [Example 737, 2-(4-(5-Chloro-6-(2-chloro-3-(5-((((1s,3s)-3-hydroxycyclobutyl)amino)methyl)-6-methoxypyridin-2-yl)phenyl)pyrimidin-4-yl)-2-methoxybenzyl)-2,6-diazaspiro[3.4]octan-7-one]	109
COc1cc(-c2nccc(-c3cccc(-c4ccc(CNC5CCN(C(=O)C6CCCCC6)CC5)c(OC)n4)c3Cl)c2Cl)ccc1CNC1CCN(C(=O)C2CCCCC2)CC1 [Example 456, (4-(((6-(2-Chloro-3-(3-chloro-2-(4-(((1-(cyclohexanecarbonyl)piperidin-4-yl)amino)methyl)-3-methoxyphenyl)pyridin-4-yl)phenyl)-2-methoxypyridin-3-yl)methyl)amino)piperidin-1-yl)(cyclohexyl)methanone]	291
COc1cc(-c2nccc(-c3cccc(-c4ccc(CNC5CCN(C(C)=O)CC5)c(OC)n4)c3C(F)(F)F)c2Cl)ccc1CNC1CCN(C(C)=O)CC1 [Example 528, 1-(4-(((6-(3-(2-(4-(((1-Acetylpiperidin-4-yl)amino)methyl)-3-methoxyphenyl)-3-chloropyridin-4-yl)-2-(trifluoromethyl)phenyl)-2-methoxypyridin-3-yl)methyl)amino)piperidin-1-yl)ethan-1-one]	≥ 10000
COc1cc(-c2nccc(-c3cccc(-c4ccc(CNC[C@@H]5CCC(=O)N5)c(OC)n4)c3Cl)c2Cl)cc2c1CCN(CC(C)(C)O)C2 [Cmpd 45, (S)-5-((((6-(2-chloro-3-(3-chloro-2-(2-(2-hydroxy-2-methylpropyl)-5-methoxy-1,2,3,4-tetrahydroisoquinolin-7-yl)pyridin-4-yl)phenyl)-2-methoxypyridin-3-yl)methyl)amino)methyl)pyrrolidin-2-one]	892
COc1nc(-c2cncc(-c3cccc(NC(=O)c4cn(C)c(=O)n(C)c4=O)c3Cl)c2Cl)ccc1CN1CC2(C1)CN(C(C)=O)C2 [Compound 730, N-(3-(5-((6-Acetyl-2,6-diazaspiro[3.3]heptan-2-yl)methyl)-4′-chloro-6-methoxy-[2,3′-bipyridin]-5′-yl)-2-chlorophenyl)-1,3-dimethyl-2,4-dioxo-1,2,3,4-tetrahydropyrimidine-5-carboxamide]	1100
COc1cc(-c2nccc(-c3cccc(-c4ccc(CNC[C@H](C)O)c(OC)n4)c3C(F)(F)F)c2Cl)ccc1CNC[C@H](C)O [Example 580, (S)-1-(((6-(3-(3-Chloro-2-(4-((((S)-2-hydroxypropyl)amino)methyl)-3-methoxyphenyl)pyridin-4-yl)-2-(trifluoromethyl)phenyl)-2-methoxypyridin-3-yl)methyl)amino)propan-2-ol]	≥ 10000

The next molecules have a lower EC50 than those just listed; values first:

EC50 [nM]	Structure (SMILES)
66.1	COc1cc(-c2nccc(-c3cccc(-c4ccc(CN5CC6(C5)CN(C(=O)CO)C6)c(OC)n4)c3Cl)c2Cl)ccc1CN1CC2(C1)CN(C(=O)CO)C2 [Example 667, 1-(6-((6-(2-Chloro-3-(3-chloro-2-(4-((6-(2-hydroxyacetyl)-2,6-diazaspiro[3.3]heptan-2-yl)methyl)-3-methoxyphenyl)pyridin-4-yl)phenyl)-2-methoxypyridin-3-yl)methyl)-2,6-diazaspiro[3.3]heptan-2-yl)-2-hydroxyethan-1-one]
28.9	COc1cc(-c2nccc(-c3cccc(-c4ccc(CNC5CCOCC5)c(OC)n4)c3Cl)c2Cl)cc(F)c1CNC1CCOCC1 [Example 348, N-((6-(2-Chloro-3-(3-chloro-2-(3-fluoro-5-methoxy-4-(((tetrahydro-2H-pyran-4-yl)amino)methyl)phenyl)pyridin-4-yl)phenyl)-2-methoxypyridin-3-yl)methyl)tetrahydro-2H-pyran-4-amine]
31.7	COc1cc(-c2nccc(-c3cccc(-c4ccc(CN(C)C[C@@H]5CCC(=O)N5)c(OC)n4)c3Cl)c2Cl)ccc1CN(C)C[C@@H]1CCC(=O)N1 [Example 472, (S)-5-((((6-(2-Chloro-3-(3-chloro-2-(3-methoxy-4-((methyl(((S)-5-oxopyrrolidin-2-yl)methyl)amino)methyl)phenyl)pyridin-4-yl)phenyl)-2-methoxypyridin-3-yl)methyl)(methyl)amino)methyl)pyrrolidin-2-one]
87.5	COc1cc(-c2nccc(-c3cccc(-c4ccc(CN5CC6(CC(=O)N(C)C6)C5)c(OC)n4)c3Cl)c2Cl)ccc1CN1CC2(CC(=O)N(C)C2)C1 [Example 571, 2-(4-(3-chloro-4-(2-chloro-3-(6-methoxy-5-((6-methyl-7-oxo-2,6-diazaspiro[3.4]octan-2-yl)methyl)pyridin-2-yl)phenyl)pyridin-2-yl)-2-methoxybenzyl)-6-methyl-2,6-diazaspiro[3.4]octan-7-one]
25.1	COc1cc(-c2nccc(-c3cccc(-c4ccc(CNC[C@@H]5CCC(=O)N5)c(OC)n4)c3Cl)c2Cl)cc2c1CN(C[C@@H](C)O)CC2 [Cmpd 27, (S)-5-((((6-(2-chloro-3-(3-chloro-2-(2-((R)-2-hydroxypropyl)-8-methoxy-1,2,3,4-tetrahydroisoquinolin-6-yl)pyridin-4-yl)phenyl)-2-methoxypyridin-3-yl)methyl)amino)methyl)pyrrolidin-2-one]
25.6	COc1cc(-c2nccc(-c3cccc(-c4cc(Cl)c(CNC[C@@H]5CCC(=O)N5)c(OC)n4)c3Cl)c2Cl)cc2c1CN(C[C@@H]1CCC(=O)N1)CC2 [Cmpd 37, (S)-5-((6-(3-chloro-4-(2-chloro-3-(4-chloro-6-methoxy-5-(((((S)-5-oxopyrrolidin-2-yl)methyl)amino)methyl)pyridin-2-yl)phenyl)pyridin-2-yl)-8-methoxy-3,4-dihydroisoquinolin-2(1H)-yl)methyl)pyrrolidin-2-one]
17.9	COCC(=O)N1CCC(NCc2ccc(-c3cccc(-c4ccnc(-c5ccc(CN6CC7(CNC(=O)C7)C6)c(OC)c5)c4Cl)c3Cl)nc2OC)CC1 [Example 490, 2-(4-(3-Chloro-4-(2-chloro-3-(6-methoxy-5-(((1-(2-methoxyacetyl)piperidin-4-yl)amino)methyl)pyridin-2-yl)phenyl)pyridin-2-yl)-2-methoxybenzyl)-2,6-diazaspiro[3.4]octan-7-one]
82.8	COc1nc(-c2cccc(-c3ccnc(-c4cc(OC)c5nc(CNCCO)nn5c4)c3Cl)c2Cl)ccc1CNC1CCN(C(C)=O)CC1 [Example 654, 1-(4-(((6-(2-Chloro-3-(3-chloro-2-(2-(((2-hydroxyethyl)amino)methyl)-8-methoxy-[1,2,4]triazolo[1,5-a]pyridin-6-yl)pyridin-4-yl)phenyl)-2-methoxypyridin-3-yl)methyl)amino)piperidin-1-yl)ethan-1-one]
15.3	COc1cc(-c2nccc(-c3cccc(-c4ccc(CNC5CCN(C(=O)C(C)C)CC5)c(OC)n4)c3Cl)c2Cl)ccc1CNC1CCN(C(C)=O)CC1 [Example 382, 1-(4-(((6-(3-(2-(4-(((1-acetylpiperidin-4-yl)amino)methyl)-3-methoxyphenyl)-3-chloropyridin-4-yl)-2-chlorophenyl)-2-methoxypyridin-3-yl)methyl)amino)piperidin-1-yl)-2-methylpropan-1-one]
60.5	COc1cc(-c2nccc(-c3cccc(-c4ccc(CNC[C@@H]5CCC(=O)N5)c(OC)n4)c3Cl)c2Cl)cc(F)c1CNC(C)C [Cmpd 82, (S)-5-((((6-(2-chloro-3-(3-chloro-2-(3-fluoro-4-((isopropylamino)methyl)-5-methoxyphenyl)pyridin-4-yl)phenyl)-2-methoxypyridin-3-yl)methyl)amino)methyl)pyrrolidin-2-one]
77.7	COc1nc(-c2cccc(-c3ccnc(-c4cnc5c(CNC[C@@H]6CCC(=O)N6)cn(C)c5c4)c3Cl)c2Cl)ccc1CNC[C@@H]1CCC(=O)N1 [Cmpd 13, (S)-5-((((6-(2-chloro-3-(3-chloro-2-(1-methyl-3-(((((S)-5-oxopyrrolidin-2-yl)methyl)amino)methyl)-1H-pyrrolo[3,2-b]pyridin-6-yl)pyridin-4-yl)phenyl)-2-methoxypyridin-3-yl)methyl)amino)methyl)pyrrolidin-2-one]
31	COc1cc(-c2nccc(-c3cccc(-c4ccc(CN5CC6(CNC(=O)C6)C5)c(OC)n4)c3Cl)c2Cl)cc2c1CN(CCCF)CC2 [Example 250, 2-((6-(2-Chloro-3-(3-chloro-2-(2-(3-fluoropropyl)-8-methoxy-1,2,3,4-tetrahydroisoquinolin-6-yl)pyridin-4-yl)phenyl)-2-methoxypyridin-3-yl)methyl)-2,6-diazaspiro[3.4]octan-7-one]
40.8	COc1cc(-c2nccc(-c3cccc(-c4ccc(CNC[C@@H]5CCC(=O)N5)c(OC)n4)c3Cl)c2Cl)cc2c1CN(CCCF)CC2 [Cmpd 63, (S)-5-((((6-(2-chloro-3-(3-chloro-2-(2-(3-fluoropropyl)-8-methoxy-1,2,3,4-tetrahydroisoquinolin-6-yl)pyridin-4-yl)phenyl)-2-methoxypyridin-3-yl)methyl)amino)methyl)pyrrolidin-2-one]
